In patent US20240317756A1, “INHIBITORS OF BRUTON'S TYROSINE KINASE” (Pharmacyclics LLC, priority 2006, published 2024):
One block for each compound: values may come before it.

Legend:
LCK = LCK (Homo sapiens (Human), UniProt P06239); assay: in vitro HotSpot kinase assay, LCK; assay type: biochemical; details: Table 2, 1 uM ATP, one hour incubation with inhibitor
JAK3 = JAK3 (Homo sapiens (Human), UniProt P52333); assay: in vitro HotSpot kinase assay, JAK3; assay type: biochemical; details: Table 2, 1 uM ATP, one hour incubation with inhibitor
lymphoma cell line DOHH2 = assay: DOHH2 cell proliferation assay (Alamar Blue); assay type: cell-based
Protocol: After 72 hours, cell number was measured using Alamar Blue using manufacturer's protocol. A dilution series of untreated cells was run in parallel to verify that the Alamar Blue assay reliably reflected cell number and that growth conditions were not limiting. […] GI50 values were confirmed in two or more separate experiments for each cell line.
Analogs are generated that are Btk inhibitors and that are cytotoxic to the lymphoma cell line DOHH2. For the DOHH2 cell proliferation assay, cells were seeded in 96-well plates in standard growth media (RPMI+10% fetal calf serum) and compounds were added in a 9-point dilution series ranging from 10 uM to 0.04 uM with DMSO at 0.1% final concentration in all wells. After 72 hours, cell number was measured using Alamar Blue using manufacturer's protocol. A dilution series of untreated cells was run in parallel to verify that the Alamar Blue assay reliably reflected cell number and that growth conditions were not limiting.

[1] = plasma concentrations after oral dosing of rats; assay type: in vivo; details: single oral dose 8 mg/kg each in combination
Protocol: Blood samples were collected at 0.0833 (5 minutes), 0.333 (20 minutes), 1, 3, 6, 9, and 24 hours post-dosing from orally dosed rats.
Male jugular vein cannulated rats were administered a single dose of all test compounds at 8 mg/kg each, in combination by oral gavage. Dose volumes were adjusted based on body weight data collected immediately prior to dosing. Blood samples were collected at 0.0833 (5 minutes), 0.333 (20 minutes), 1, 3, 6, 9, and 24 hours post-dosing from orally dosed rats. The samples were collected into plasma separator Microtainer tubes with anticoagulant (lithium heparin). Plasma samples were prepared by centrifugation (5 min at 5000×g), and at least 100 μL were transferred to storage tubes and stored frozen at −80° C. Plasma samples were thawed and 75 uL aliquots were transferred to centrifuge tubes to which 10 μL aliquots of internal standard solution (1 μg/mL) were added. The samples were not diluted with blank plasma prior to further processing. Soluble proteins were precipitated by the addition of 200 μL of acetonitrile, followed by centrifugation (20 min at 16,000×g). The samples were evaporated to dryness and reconstituted in 200 μL of water containing 0.2% formic acid and 10% methanol. All samples were loaded onto an autosampler maintained at 6° C. and evaluated for concentrations of test compounds using LC-MS/MS.

BTK = BTK (Homo sapiens (Human), UniProt Q06187); assay: in vitro HotSpot kinase assay, BTK; assay type: biochemical; details: Table 2, 1 uM ATP, one hour incubation with inhibitor
ITK = ITK (Homo sapiens (Human), UniProt Q08881); assay: in vitro HotSpot kinase assay, ITK; assay type: biochemical; details: Table 2, 1 uM ATP, one hour incubation with inhibitor
EGFR = EGFR (Homo sapiens (Human), UniProt P00533); assay: in vitro HotSpot kinase assay, EGFR; assay type: biochemical; details: Table 2, 1 uM ATP, one hour incubation with inhibitor
[2] = glutathione binding assay; details: 5 mM glutathione, 10 μM Btk inhibitor, room temperature, HPLC
Protocol: A calculated value (e.g (1/Btk IC50)/Glutathione conjugation rate) as shown in the Table 2) is used to compare compounds for their ratio between potency at inhibiting their target and their non-specific binding to other SH groups, such as those in glutathione. […] Calculated ratios such as these are used to quantitatively compare different compounds and select compounds for further study.
For the glutathione binding assays, 5 mM glutathione, 10 μM Btk inhibitor in DMSO (10 μL) and 6 equivalents of N′N′ Diisopropyl ethyl amine were combined in 1 mL potassium phosphate buffer. The mixture was incubated for 0, 15, 60 minutes at room temperature and the reaction was stopped with 10 equivalents of formic acid. 50 μL of each reaction mixture was injected on HPLC (Mobil Phase A: 0.2% formic acid in water, Mobile Phase B: 0.2% formic acid in acetonitrile, HPLC Column: Metasil Basic 3μ, 150×4.6 mm, 10% B, Gradient: 10% to 90% B, Detection: UV/Vis […]). Rate of reaction was reported as nmole GSH conjugate conversion per minute from the normalized ratio for area under the curve from HPLC chromatograms for both GSH conjugate and the parent.

Egr-1 = assay: expression of ERK transcriptional target Egr-1; assay type: cell-based; details: 1 uM
[3] = tested on: pERK and BCR pathway phosphorylation in DOHH2 cells; assay: BCR signal transduction pathway phosphorylation, DOHH2; assay type: cell-based; details: unstimulated DOHH2 cells; read-out: IC50 for decrease of pERK levels
Text: To identify biomarkers that correlate with response to Compound 1, phosphorylation events in the BCR signal transduction pathway were investigated.
However, when we examined basal phosphorylation levels, we found higher basal phosphorylation in DOHH2 compared to Ramos, with phospho-ERK in particular indicating higher levels of basal or tonic signaling in DOHH2.

[4] = tested on: lymphoma cell line WSU-DLCL2; assay: BCR cross-linking by anti-IgG in WSU-DLCL2; assay type: cell-based; details: WSU-DLCL2, anti-IgG 30 ug/ml
HER4 = HER4 (Homo sapiens (Human), UniProt Q15303); assay: in vitro HotSpot kinase assay, HER4; assay type: biochemical; details: purified enzymes, 33P-ATP, 1 uM ATP
Text: (§1) Table 1 is a table showing the degree of inhibition of a panel of kinases for two example compounds. […] Thus, subtle modifications in the linker moiety and the Michael acceptor moiety are important for the design of selective ACK inhibitors.

Fyn = Fyn (Homo sapiens (Human), UniProt P06241); assay: in vitro HotSpot kinase assay, Fyn; assay type: biochemical; details: purified enzymes, 33P-ATP, 1 uM ATP
Brk = Brk (Homo sapiens (Human), UniProt Q13882); assay: in vitro HotSpot kinase assay, Brk; assay type: biochemical; details: purified enzymes, 33P-ATP, 1 uM ATP
BLK = BLK (Homo sapiens (Human), UniProt P51451); assay: in vitro HotSpot kinase assay, BLK; assay type: biochemical; details: purified enzymes, 33P-ATP, 1 uM ATP
TEC = TEC (Homo sapiens (Human), UniProt P42680); assay: in vitro HotSpot kinase assay, TEC; assay type: biochemical; details: purified enzymes, 33P-ATP, 1 uM ATP
SYK = SYK (Homo sapiens (Human), UniProt P43405); assay: in vitro HotSpot kinase assay, SYK; assay type: biochemical; details: purified enzymes, 33P-ATP, 1 uM ATP
Text: as §1

HER2 = HER2 (Homo sapiens (Human), UniProt P04626); assay: in vitro HotSpot kinase assay, HER2; assay type: biochemical; details: purified enzymes, 33P-ATP, 1 uM ATP
FGR = FGR (Homo sapiens (Human), UniProt P09769); assay: in vitro HotSpot kinase assay, FGR; assay type: biochemical; details: purified enzymes, 33P-ATP, 1 uM ATP
YES = YES (Homo sapiens (Human), UniProt P07947); assay: in vitro HotSpot kinase assay, YES; assay type: biochemical; details: purified enzymes, 33P-ATP, 1 uM ATP
C-src = C-src (Homo sapiens (Human), UniProt P12931); assay: in vitro HotSpot kinase assay, C-src; assay type: biochemical; details: purified enzymes, 33P-ATP, 1 uM ATP
Text: as §1

[5] = tested on: collagen-induced arthritis; assay: collagen-induced arthritis in the mouse; assay type: in vivo, Male DBA/lOlaHsd mice; details: 12.5 mg/kg or 50 mg/kg each day of an 11-day period
Protocol: […]. […] Dexamethasone was included as a positive control. Paw inflammation was scored from 0-5 and averaged across all paws from all animals for each group in the study.
. After paw inflammation was established, animals were randomized and Compound lor vehicle was dosed orally once per day starting at day 1. Paw inflammation was scored from 0-5 and averaged across all paws from all animals for each group in the study. […] Dexamethasone was included as a positive control.

FER = FER (Homo sapiens (Human), UniProt P16591); assay: in vitro HotSpot kinase assay, FER; assay type: biochemical; details: purified enzymes, 33P-ATP, 1 uM ATP
ABL = ABL (Homo sapiens (Human), UniProt P00519); assay: in vitro HotSpot kinase assay, ABL; assay type: biochemical; details: purified enzymes, 33P-ATP, 1 uM ATP
Lyn = Lyn (Homo sapiens (Human), UniProt P07948); assay: in vitro HotSpot kinase assay, Lyn; assay type: biochemical; details: purified enzymes, 33P-ATP, 1 uM ATP
CSK = CSK (Homo sapiens (Human), UniProt P41240); assay: in vitro HotSpot kinase assay, CSK; assay type: biochemical; details: purified enzymes, 33P-ATP, 1 uM ATP
[6] = tested on: Tec family kinases, including Btk, and Src family kinases; assay: in vitro profiling against a panel of greater than 100 kinases; assay type: biochemical
Text: By way of example only and in some embodiments, the observed potency, selectivity, and cell permeability of compounds such as Compound 2 are appropriate to incorporate these molecules into a Kinase-targeted, activity based probe that allows direct visualization of Kinase activity in intact cells. […] Without limiting the scope of the compositions and methods described herein, it is postulated that the structural basis for the selectivity is covalent modification of a non-catalytic cysteine residue (Cys 481 in Btk) that is conserved in the ATP binding pocket of the Tec family and several other kinases.

BTK, sequence (Q06187 whole entry): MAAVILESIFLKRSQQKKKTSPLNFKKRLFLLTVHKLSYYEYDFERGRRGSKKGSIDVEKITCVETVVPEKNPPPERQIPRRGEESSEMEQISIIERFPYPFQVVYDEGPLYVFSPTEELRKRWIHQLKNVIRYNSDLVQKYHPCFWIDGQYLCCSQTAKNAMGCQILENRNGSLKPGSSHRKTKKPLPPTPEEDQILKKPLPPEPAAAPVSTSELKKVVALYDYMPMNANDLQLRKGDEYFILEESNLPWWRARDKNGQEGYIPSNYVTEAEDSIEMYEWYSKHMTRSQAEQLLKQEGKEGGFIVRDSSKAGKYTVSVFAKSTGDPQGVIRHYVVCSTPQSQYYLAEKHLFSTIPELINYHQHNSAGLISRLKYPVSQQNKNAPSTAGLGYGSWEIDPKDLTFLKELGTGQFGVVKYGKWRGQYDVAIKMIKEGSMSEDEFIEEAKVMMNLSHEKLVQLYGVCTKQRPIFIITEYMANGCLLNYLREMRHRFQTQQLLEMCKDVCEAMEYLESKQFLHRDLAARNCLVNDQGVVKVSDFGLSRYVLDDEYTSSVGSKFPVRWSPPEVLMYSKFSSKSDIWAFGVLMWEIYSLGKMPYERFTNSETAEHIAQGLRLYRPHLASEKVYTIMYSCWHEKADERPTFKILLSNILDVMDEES
EGFR, sequence (P00533 25-1210, species assumed): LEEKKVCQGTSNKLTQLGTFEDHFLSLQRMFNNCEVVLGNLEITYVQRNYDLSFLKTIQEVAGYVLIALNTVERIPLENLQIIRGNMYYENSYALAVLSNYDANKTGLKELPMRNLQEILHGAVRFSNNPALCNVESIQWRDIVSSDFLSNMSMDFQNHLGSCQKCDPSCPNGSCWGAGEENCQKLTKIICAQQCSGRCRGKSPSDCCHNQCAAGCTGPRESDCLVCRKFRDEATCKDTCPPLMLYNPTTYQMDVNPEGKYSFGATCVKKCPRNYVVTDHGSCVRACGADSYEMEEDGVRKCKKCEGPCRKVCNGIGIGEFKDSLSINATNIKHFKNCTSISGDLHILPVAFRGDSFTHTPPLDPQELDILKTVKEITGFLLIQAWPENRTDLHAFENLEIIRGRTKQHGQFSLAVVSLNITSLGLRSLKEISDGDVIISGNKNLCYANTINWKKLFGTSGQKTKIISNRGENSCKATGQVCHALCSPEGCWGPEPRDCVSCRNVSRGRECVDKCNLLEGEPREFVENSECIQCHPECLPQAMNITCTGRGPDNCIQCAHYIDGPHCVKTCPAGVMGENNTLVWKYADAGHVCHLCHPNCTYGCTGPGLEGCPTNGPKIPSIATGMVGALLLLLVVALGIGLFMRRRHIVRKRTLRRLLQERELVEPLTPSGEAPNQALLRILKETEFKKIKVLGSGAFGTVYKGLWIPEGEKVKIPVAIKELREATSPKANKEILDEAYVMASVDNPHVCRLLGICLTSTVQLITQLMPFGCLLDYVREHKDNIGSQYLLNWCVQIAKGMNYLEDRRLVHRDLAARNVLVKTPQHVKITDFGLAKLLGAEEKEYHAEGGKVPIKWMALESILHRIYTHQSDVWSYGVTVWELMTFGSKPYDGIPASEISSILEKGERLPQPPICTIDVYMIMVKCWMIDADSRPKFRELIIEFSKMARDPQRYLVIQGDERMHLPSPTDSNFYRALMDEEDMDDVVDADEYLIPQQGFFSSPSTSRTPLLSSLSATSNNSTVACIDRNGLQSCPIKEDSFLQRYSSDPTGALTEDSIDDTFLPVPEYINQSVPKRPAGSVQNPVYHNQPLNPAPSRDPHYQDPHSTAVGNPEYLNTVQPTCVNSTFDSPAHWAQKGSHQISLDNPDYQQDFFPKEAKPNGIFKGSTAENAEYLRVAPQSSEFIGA
ITK, sequence (Q08881 whole entry, species assumed): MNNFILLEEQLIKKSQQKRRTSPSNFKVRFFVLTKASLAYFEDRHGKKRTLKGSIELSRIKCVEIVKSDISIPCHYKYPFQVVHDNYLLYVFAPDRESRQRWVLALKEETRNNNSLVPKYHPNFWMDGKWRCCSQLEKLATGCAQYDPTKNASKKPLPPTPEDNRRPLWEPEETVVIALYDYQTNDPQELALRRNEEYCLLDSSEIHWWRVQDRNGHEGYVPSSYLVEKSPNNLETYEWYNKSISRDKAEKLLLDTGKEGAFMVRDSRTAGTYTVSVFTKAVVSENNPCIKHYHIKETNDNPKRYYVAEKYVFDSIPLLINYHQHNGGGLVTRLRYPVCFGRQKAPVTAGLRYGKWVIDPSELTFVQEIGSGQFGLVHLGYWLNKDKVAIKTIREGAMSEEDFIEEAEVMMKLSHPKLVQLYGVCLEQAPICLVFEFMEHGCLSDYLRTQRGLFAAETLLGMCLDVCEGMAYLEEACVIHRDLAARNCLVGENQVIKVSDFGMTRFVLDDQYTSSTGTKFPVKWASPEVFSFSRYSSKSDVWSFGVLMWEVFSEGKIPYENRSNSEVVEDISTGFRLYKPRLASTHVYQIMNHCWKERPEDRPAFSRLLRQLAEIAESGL
LCK, sequence (P06239 whole entry, species assumed): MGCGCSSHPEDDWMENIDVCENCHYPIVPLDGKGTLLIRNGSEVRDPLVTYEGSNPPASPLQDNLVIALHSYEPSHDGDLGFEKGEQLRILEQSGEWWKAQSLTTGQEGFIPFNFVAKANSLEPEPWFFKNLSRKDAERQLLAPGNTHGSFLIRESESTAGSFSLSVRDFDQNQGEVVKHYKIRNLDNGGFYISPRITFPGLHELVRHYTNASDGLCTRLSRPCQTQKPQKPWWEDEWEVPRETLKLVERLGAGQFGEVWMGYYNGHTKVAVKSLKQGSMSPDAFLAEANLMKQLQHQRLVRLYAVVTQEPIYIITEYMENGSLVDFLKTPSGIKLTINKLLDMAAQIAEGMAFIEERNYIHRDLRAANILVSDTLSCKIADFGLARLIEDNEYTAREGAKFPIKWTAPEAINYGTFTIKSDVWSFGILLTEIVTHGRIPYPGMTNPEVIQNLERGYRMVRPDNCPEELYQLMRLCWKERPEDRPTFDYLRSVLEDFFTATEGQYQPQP
JAK3, sequence (P52333 whole entry, species assumed): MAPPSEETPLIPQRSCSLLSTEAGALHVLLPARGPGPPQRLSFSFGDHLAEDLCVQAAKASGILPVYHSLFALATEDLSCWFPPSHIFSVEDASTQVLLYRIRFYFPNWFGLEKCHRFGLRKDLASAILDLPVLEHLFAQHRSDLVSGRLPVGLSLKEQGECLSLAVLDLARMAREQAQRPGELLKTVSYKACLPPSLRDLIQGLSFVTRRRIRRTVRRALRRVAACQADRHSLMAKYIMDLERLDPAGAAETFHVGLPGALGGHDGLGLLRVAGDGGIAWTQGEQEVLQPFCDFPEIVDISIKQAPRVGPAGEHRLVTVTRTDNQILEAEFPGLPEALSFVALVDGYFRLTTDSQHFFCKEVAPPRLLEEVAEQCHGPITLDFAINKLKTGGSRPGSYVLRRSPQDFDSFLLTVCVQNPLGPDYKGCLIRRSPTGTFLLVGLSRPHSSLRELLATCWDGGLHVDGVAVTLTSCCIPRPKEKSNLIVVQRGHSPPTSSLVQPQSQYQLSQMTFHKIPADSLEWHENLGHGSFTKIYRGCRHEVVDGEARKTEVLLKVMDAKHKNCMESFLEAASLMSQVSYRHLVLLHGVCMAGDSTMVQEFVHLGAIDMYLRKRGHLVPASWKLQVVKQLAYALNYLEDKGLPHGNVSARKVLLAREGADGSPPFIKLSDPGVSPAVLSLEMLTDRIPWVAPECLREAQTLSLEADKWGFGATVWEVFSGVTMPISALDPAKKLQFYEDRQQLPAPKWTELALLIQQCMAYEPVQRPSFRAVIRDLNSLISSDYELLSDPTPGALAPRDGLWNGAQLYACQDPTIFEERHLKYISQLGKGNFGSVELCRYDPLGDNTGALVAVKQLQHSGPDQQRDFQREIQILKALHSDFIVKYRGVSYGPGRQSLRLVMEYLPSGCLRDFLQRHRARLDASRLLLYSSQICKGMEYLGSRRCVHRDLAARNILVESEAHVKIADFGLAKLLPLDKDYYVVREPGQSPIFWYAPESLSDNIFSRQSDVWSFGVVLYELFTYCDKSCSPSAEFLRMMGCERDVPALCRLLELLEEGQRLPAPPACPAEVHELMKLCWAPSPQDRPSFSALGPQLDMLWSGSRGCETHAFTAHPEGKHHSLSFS
TEC, sequence (P42680 whole entry): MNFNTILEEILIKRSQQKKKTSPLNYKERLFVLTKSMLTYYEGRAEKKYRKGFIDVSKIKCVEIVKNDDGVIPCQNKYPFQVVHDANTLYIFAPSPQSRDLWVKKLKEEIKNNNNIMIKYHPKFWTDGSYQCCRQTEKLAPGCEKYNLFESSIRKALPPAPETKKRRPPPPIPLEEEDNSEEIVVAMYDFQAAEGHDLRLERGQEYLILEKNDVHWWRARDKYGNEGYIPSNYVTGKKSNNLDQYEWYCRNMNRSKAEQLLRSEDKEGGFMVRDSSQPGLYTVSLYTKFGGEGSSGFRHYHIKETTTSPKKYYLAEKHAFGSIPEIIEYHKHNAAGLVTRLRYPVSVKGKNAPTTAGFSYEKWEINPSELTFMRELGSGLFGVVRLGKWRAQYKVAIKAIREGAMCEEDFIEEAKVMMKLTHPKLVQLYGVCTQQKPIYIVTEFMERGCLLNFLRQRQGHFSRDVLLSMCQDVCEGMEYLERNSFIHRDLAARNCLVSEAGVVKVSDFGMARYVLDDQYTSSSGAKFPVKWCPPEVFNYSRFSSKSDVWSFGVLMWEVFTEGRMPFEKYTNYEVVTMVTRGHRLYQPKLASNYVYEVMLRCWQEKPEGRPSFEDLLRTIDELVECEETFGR

Structure (SMILES): Nc1ncnc2c1c(-c1ccc(Oc3ccccc3)cc1)nn2[C@@H]1CCCCN1C(=O)/C=C/c1c[nH]cn1 [Compound 4]
time to reduced Egr-1 expression (Egr-1): ≤ 1 h
maximal downregulation of Egr-1 expression (Egr-1; achieved by 4 hr): 10 fold
IC50 [3]: < 10 nM
IC50 (BTK): 22.2 nM
inhibition of pERK under BCR cross-linking [4]: overcomes inhibition of pERK

Structure (SMILES): CN(C)C/C=C/C(=O)N1CCC(n2nc(-c3ccc(Oc4ccccc4)cc3)c3c(N)ncnc32)CC1 [Compound 7, (E)-1-(4-(4-amino-3-(4-phenoxyphenyl)-1H-pyrazolo[3,4-d]pyrimidin-1-yl)piperidin-1-yl)-4-(dimethylamino)but-2-en-1-one]
IC50 (LCK): 2.6 nM
IC50 (JAK3): > 10000 nM
GI50 (lymphoma cell line DOHH2; Homo sapiens, DOHH-2, 72 hours): 317 nM
in vivo half-life [1]: significantly longer in vivo half-life
IC50 (BTK): 6.3 nM
IC50 (ITK): 6120 nM
IC50 (EGFR): 269 nM
Glutathione Conj Rate [2]: 0.01 nmol/min

Structure (SMILES): CN(C)C/C=C/C(=O)N1CCC[C@@H](n2nc(-c3ccc(Oc4ccccc4)cc3)c3c(N)ncnc32)C1 [Compound 2]
GI50 (lymphoma cell line DOHH2; 72 hours): 320 nM
IC50 (BTK): 1.1 nM
IC50 (EGFR): 48.8 nM
potency and selectivity in kinase panel [6]: highly potent and selective inhibitor

Further lines, with some results ahead:

IC50 (LCK): 5.97 nM
IC50 (JAK3): > 10000 nM
GI50 (lymphoma cell line DOHH2; 72 hours): > 10000 nM
in vivo half-life [1]: short half-life in vivo
IC50 (BTK): 1.33 nM
IC50 (ITK): 14300 nM
IC50 (EGFR): 698 nM
Glutathione Conj Rate [2]: 0.004361 nmol/min
Structure (SMILES): CN(C)C/C=C/C(=O)N1CCC[C@H]1Cn1nc(-c2ccc(Oc3ccccc3)cc2)c2c(N)ncnc21 [Compound 12, (E)-1-((S)-2-((4-amino-3-(4-phenoxyphenyl)-1H-pyrazolo[3,4-d]pyrimidin-1-yl)methyl)pyrolidin-1-yl)-4-(dimethylamino)but-2-en-1-one]

IC50 (HER4): 3.2 nM
IC50 (Fyn): 7.1 nM
IC50 (Brk): 3.3 nM
IC50 (BLK): 0.2 nM
IC50 (TEC): 108 nM
IC50 (SYK): > 10000 nM
IC50 (HER2): 1540 nM
IC50 (FGR): 0.4 nM
IC50 (YES): 0.8 nM
IC50 (C-src): 14.3 nM
IC50 (FER): 3350 nM
GI50 (lymphoma cell line DOHH2; 72 hours): 11 nM
IC50 (ABL): 32.3 nM
IC50 (Lyn): 1.2 nM
IC50 (CSK): 2.4 nM
Structure (SMILES): C=CC(=O)N[C@H]1CC[C@@H](n2nc(-c3ccc(Oc4ccccc4)cc3)c3c(N)ncnc32)CC1 [Compound 9]
paw inflammation [5]: reduced the increase in paw inflammation
